Experimental data as given in patent publication US20230219956A1 (BETTA PHARMACEUTICALS CO.,LTD, priority 2019, published 2023).

Assays:
H358 cells = experiment: Cell proliferation assay, H358 cells (Cell-titer Glo); type: cell-based; details: Homo sapiens, NCI-H358, 96 h incubation
Experimental: (§1) Pave the H358 cells on a 96-well ultra-low adsorption plate with 2000 cells and 190 μL/well. After incubating overnight, compound solutions of gradient concentration was prepared, and added 10 μL of DMSO solution of the test compound of each concentration to the cells of each well. The final concentration of the compound is 10000, 3333.3, 1111.1, 370.4, 123.5, 41.2, 13.7, 4.6, 1.5, 0 nM (the final concentration of DMSO is 0.25%). Incubated for 96 h at 37° C. and 5% CO2. 50 μL of Cell-titer Glo working solution was added to each well, shaked and mixed, and incubated at room temperature for 10 minutes. The multi-functional microplate reader read the luminescence value, and converted the luminescence value reading into inhibition percentage.
(§2) Inhibition percentage=(maximum value−reading)/(maximum value−minimum value)*100.
(§3) The “maximum value” was the DMSO control, the “minimum value” indicates the cell-free control group.
(§4) Graphpad Prism software was used to perform curve fitting and obtain IC50 value.
Refer to table 3 for the IC50 data of some compounds in the Examples for inhibiting H358 cells.

MIA-PACA-2 cells = experiment: Cell proliferation assay, MIA-PACA-2 cells (Cell-titer Glo); type: cell-based; details: Homo sapiens, 96 h incubation
Experimental: as §1, with “the MIA-PACA-2” for “the H358”, “cells into” for “cells on”, “plate at 600 cells, 160” for “plate with 2000 cells and 190”, “added 40” for “added 10”, “10000, 2000, 400, 80, 16, 3.2, 0.64, 0.12, 0.025,” for “10000, 3333.3, 1111.1, 370.4, 123.5, 41.2, 13.7, 4.6, 1.5,”
as §2, §3, §4
Refer to Table 3 for the IC50 data of some compounds in the examples inhibiting MIA-PACA-2 cells.

IC50 (H358 cells) [nM] | IC50 (MIA-PACA-2 cells) [nM] | Compound
4.4 | 8.9 | C=CC(=O)N1CC2(CCN(c3nc(C4CCN(C5COC5)CC4)nc4c(OCC(F)(F)F)c(-c5c(C)ccc6[nH]ncc56)c(C=C)cc34)CC2)C1 [Example 65, 1-(7-(7-(5-methyl-1H-indazol-4-yl)-2-(1-(oxacyclobutan-3-yl)piperidin-4-yl)-8-(2,2,2-trifluoroethoxy)-6-vinylquinazolin-4-yl)-2,7-diazspiro [3.5]nonan-2-yl) propyl-2-en-1-one]
155 | 169 | C=CC(=O)N1CC2(CCN(c3nc(C4CN(C5CCCC5)C4)nc4c(OCC(F)(F)F)c(-c5c(C)ccc6[nH]ncc56)c(CC)cc34)CC2)C1 [Example 44, 1-(7-(2-(1-cyclopentyl-azacyclobutane-3-yl)-6-ethyl-7-(5-methyl-1H-indazole-4-yl)-8-(2,2,2-trifluoroethoxy)quinazolin-4-yl)-2,7-diazarospiro [3.5]nonan-2-yl) propyl-2-en-1-one]
14.9 | 46.1 | C=CC(=O)N1CC2(CCN(c3nc(C4CCN(C5CC(O)C5)CC4)nc4c(OCC(F)(F)F)c(-c5c(C)ccc6[nH]ncc56)c(C=C)cc34)CC2)C1 (stereo not drawn) [Example 80]
7.4 | 8.3 | C=CC(=O)N1CC2(CCN(c3nc(C4CCN(C(C)C)CC4)nc4c(OCC(F)(F)F)c(-c5c(C)ccc6[nH]ncc56)c(C=C)cc34)CC2)C1 [Example 71]
85.8 | 208 | C=Cc1cc2c(N3CCC4(CC3)CN(C(=O)C(=C)F)C4)nc(C3CCN(CCC#N)CC3)nc2c(OCC(F)(F)F)c1-c1c(C)ccc2[nH]ncc12 [Example 86, 3-(4-(4-(2-(2-Fluoroacryloyl)-2,7-diazspiro [3.5]nonan-7-yl)-7-(5-methyl-1H-indazole-4-yl)-8-(2,2,2-trifluoroethoxy)-6-vinylquinazolin-2-yl)piperidin-1-yl) propionitrile]
2.7 | 3.5 | C=CC(=O)N1CC2(CCN(c3nc(C4CCN(C5CCOC5)CC4)nc4c(OCC(F)(F)F)c(-c5c(C)ccc6[nH]ncc56)c(C=C)cc34)CC2)C1 (stereo not drawn) [Example 79, 1-(7-(7-(5-methyl-1H-indazol-4-yl)-2-(1-(tetrahydrofuran-3-yl)piperidin-4-yl)-8-(2,2,2-trifluoroethoxy)-6-vinylquinazolin-4-yl)-2,7-diazspiro [3.5]nonan-2-yl) propyl-2-en-1-one]
16.5 | 60.3 | C=Cc1cc2c(N3CCC4(CC3)CN(C(=O)C(=C)F)C4)nc(C3CCN(C)CC3)nc2c(OCC(F)(F)F)c1-c1c(C)ccc2[nH]ncc12 [Example 84, 2-Fluoro-1-(7-(7-(5-methyl-1H-indazol-4-yl)-2-(1-methylpiperidin-4-yl)-8-(2,2,2-trifluoroethoxy)-6-vinylquinazolin-4-yl)-2,7-diazaspiro[3.5]nonan-2-yl)propan-2-en-1-one]
39 | 47.7 | C=CC(=O)N1CC2(CCN(c3nc(C4CN(C5COC5)C4)nc4c(OCC(F)(F)F)c(-c5c(C)ccc6[nH]ncc56)c(CC)cc34)CC2)C1 [Example 40, 1-(7-(6-ethyl-7-(5-methyl-1H-indazole-4-yl)-2-(1-(oxacyclobutan-3-yl)azacyclobutane-3-yl)-8-(2,2,2-trifluoroethoxy)quinazolin-4-yl) 2,7-diazspiro [3.5]nonan-2-yl) propyl-2-en-1-one]
7.6 | 12.5 | C=CC(=O)N1CC2(CCN(c3nc(C4CCN(C5CCN(C(=O)OCC)CC5)CC4)nc4c(OCC(F)(F)F)c(-c5c(C)ccc6[nH]ncc56)c(C=C)cc34)CC2)C1 [Example 82, Ethyl 4-(4-(2-acryloyl-2,7-diazspiro [3.5]nonan-7-yl)-7-(5-methyl-1H-indazole-4-yl)-8-(2,2,2-trifluoroethoxy) 6-vinylquinazolin-2-yl)-[1,4-bipiperidine]-1′-carboxylate]
1940 | 2190 | Cc1ccc2[nH]ncc2c1-c1c(Cl)cc2c(N3CCC4(CC3)CN(C(=O)/C=C/CN(C)C)C4)nc(C3CCN(C)CC3)nc2c1OCC(F)(F)F [Example 87, (E)-1-(7-(6-chloro-7-(5-methyl-1H-indazol-4-yl)-2-(1-methylpiperidine-4-yl)-8-(2,2,2-trifluoroethoxy)quinazolin-4-yl)-2,7-diazaspiro[3.5]nonan-2-yl)-4-(dimethylamino) but-2-en-1-one]
715 | 177 | C=CC(=O)N1CC2(CCN(c3nc(C4CCN(C)CC4)nc4c(OCC(F)(F)F)c(-c5ccnc6[nH]ncc56)c(C5CC5)cc34)CC2)C1 [Example 18]
104 | 114 | C=CC(=O)N1CCN(c2nc(C3CCN(C)CC3)nc3c(OCC(F)(F)F)c(-c4c(C)ccc5[nH]ncc45)c(C=C)cc23)[C@@H](C)C1 [Example 52, 1-((3S)-3-methyl-4-(7-(5-methyl-1H-indazole-4-yl)-2-(1-methylpiperidin-4-yl)-8-(2,2,2-trifluoroethoxy)-6-vinylquinazolin-4-yl)piperazin-1-yl) propyl-2-en-1-one]
 | 2290 | C=CC(=O)N1CC2(CCN(c3nc(C4CCN(C)CC4)nc4c(OCC(F)(F)F)c(-c5ccc6cn[nH]c6c5)c(C5CC5)cc34)CC2)C1 [Example 19]
2520 | 2580 | C=CC(=O)N1CC2(CCN(c3nc(C4CCN(C)CC4)nc4c(OCC(F)(F)F)c(-c5c(C)ncc6[nH]ncc56)c(C=C)cc34)CC2)C1 [Example 56, 1-(7-(7-(5-methyl-1H-pyrazolo [3,4-c]pyridin-4-yl)-2-(1-methylpiperidine-4-yl)-8-(2,2,2-trifluoroethoxy)-6-vinylquinazolin-4-yl)-2,7-diazaspiro[3.5]nonan-2-yl) prop-2-en-1-one]
27.2 | 62.8 | C=CC(=O)N1CC2(CCN(c3nc(C4CCN(Cc5cnn(C)c5)CC4)nc4c(OCC(F)(F)F)c(-c5c(C)ccc6[nH]ncc56)c(C=C)cc34)CC2)C1 [Example 78, 1-(7-(7-(5-methyl-1H-indazol-4-yl)-2-(1-((1-methyl-1H-pyrazol-4-yl)methyl)piperidin-4-yl]-8-(2,2,2-trifluoroethoxy)-6-vinylquinazolin-4-yl)-2,7-diazarospiro [3.5]nonan-2-yl) propyl-2-en-1-one]
2720 |  | C=CC(=O)N1CC2(CCN(c3nc(C4CCN(C)CC4)nc4c(OCC(F)(F)F)c(-c5cc(F)cc(OC)c5)c(C5CC5)cc34)CC2)C1 [Example 21]
 | 9600 | C=CC(=O)N1CC2(CCN(c3nc(C4CCN(C)CC4)nc4c(Oc5c(C)ccc6[nH]ncc56)cccc34)CC2)C1 [Example 54]
 | 50.5 | C=CC(=O)N1CC2(CCN(c3nc(C4CCN(C)CC4)nc4c(C)c(-c5c(C)ccc6[nH]ncc56)c(C=C)cc34)CC2)C1 [Example 15, 1-(7-(8-methyl-7-(5-methyl-1H-indazol-4-yl)-2-(1-methylpiperidin-4-yl)-6-vinylquinazolin-4-yl)-2,7-diazaspiro[3.5]nonan-2-yl)prop-2-en-1-one]
 | 25 | C=CC(=O)N1CC2(CCN(c3nc(C4CCN(C)CC4)nc4c(OCC)c(-c5c(C)ccc6[nH]ncc56)c(Cl)cc34)CC2)C1 [Example 10, 1-(7-(6-chloro-8-ethoxy-7-(5-methyl-1H-indazol-4-yl)-2-(1-methylpiperidine-4-yl)-quinazolin-4-yl)-2,7-diazaspiro[3.5]nonan-2-yl)prop-2-en-1-one]
